Results as given in US20250332178A1, “METHODS OF TREATING MYCOBACTERIAL INFECTIONS USING TETRACYCLINE COMPOUNDS” (priority 2018, published 2025).
In brackets after ≈: the same amount, converted by molar mass. Where two headings read alike, the source gives them in different places.

Assays:
[1] = test system: Bacille Calmette Guerin (BCG); format: cell-based, Mycobacterium bovis; conditions: disk: 30 μg of linezolid
[2] = test system: rapid-growing mycobacteria (RGM) isolates; assay: MIC (CLSI broth dilution), all RGM isolates; format: cell-based, nontuberculous mycobacteria; conditions: all 50 RGM isolates
M. abscessus complex = assay: MIC (CLSI broth dilution), RGM isolates; format: cell-based; conditions: Mycobacteroides abscessus, read-out: MIC
M. chelonae = assay: MIC (CLSI broth dilution), RGM isolates; format: cell-based; conditions: Mycobacteroides chelonae, read-out: MIC
M. fortuitum group = assay: MIC (CLSI broth dilution), RGM isolates; format: cell-based; conditions: Mycolicibacterium fortuitum, read-out: MIC
M. immunogenum group = assay: MIC (CLSI broth dilution), RGM isolates; format: cell-based; conditions: M. immunogenum, read-out: MIC
M. mucogenium group = assay: MIC (CLSI broth dilution), RGM isolates; format: cell-based; conditions: read-out: MIC
M. smegmatis group = assay: MIC (CLSI broth dilution), RGM isolates; format: cell-based; conditions: Mycolicibacterium smegmatis, read-out: MIC
[3] = test system: slow-growing NTM isolates; assay: MIC (CLSI broth dilution), all slow-growing NTM isolates; format: cell-based, nontuberculous mycobacteria; conditions: all slow-growing NTM isolates
M. avium = assay: MIC (CLSI broth dilution), slow-growing NTM isolates; format: cell-based; conditions: Mycobacterium avium, read-out: MIC
M. chimaera = assay: as above; format: cell-based; conditions: read-out: MIC
M. intracellulare = assay: as above; format: cell-based; conditions: Mycobacterium intracellulare, read-out: MIC
M. arupense = assay: as above; format: cell-based; conditions: isolate 11, Other; read-out: MIC
M. simiae = assay: as above; format: cell-based; conditions: read-out: MIC

For CC(=O)NC[C@H]1CN(c2ccc(N3CCOCC3)c(F)c2)C(=O)O1 [linezolid], the “Results/Observations (growth)” value [1] was “No growth on plate”, the MIC50 ([2]; read-out: MIC50) was 4 µg/mL (≈ 11.9 µM) and the MIC90 ([2]; read-out: MIC90) was 32 µg/mL (≈ 94.9 µM). For the same molecule, the MIC (M. abscessus complex; isolate 1, M. abscessus complex, erm gene type MAB30) was 16 µg/mL (≈ 47.4 µM), the MIC (M. abscessus complex; isolate 2, M. abscessus complex, erm gene type MAB30) was 16 µg/mL (≈ 47.4 µM) and the MIC (M. abscessus complex; isolate 3, M. abscessus complex, erm gene type MAB30) was 32 µg/mL (≈ 94.9 µM). The MIC (M. abscessus complex; isolate 4, M. abscessus complex, erm gene type massiliense) was 16 µg/mL (≈ 47.4 µM), the MIC (M. abscessus complex; isolate 5, M. abscessus complex, erm gene type massiliense/subsp. abs hybrid) was 4 µg/mL (≈ 11.9 µM) and the MIC (M. abscessus complex; isolate 6, M. abscessus complex, erm gene type Type 1 abscessus) was 32 µg/mL (≈ 94.9 µM). For the same molecule, the MIC (M. abscessus complex; isolate 7, M. abscessus complex, erm gene type Type 1 abscessus) was 16 µg/mL (≈ 47.4 µM), the MIC (M. abscessus complex; isolate 8, M. abscessus complex, erm gene type Type 1 abscessus) was 16 µg/mL (≈ 47.4 µM) and the MIC (M. abscessus complex; isolate 9, M. abscessus complex, erm gene type Type 1 abscessus) was 32 µg/mL (≈ 94.9 µM). For the same molecule, the MIC (M. abscessus complex; isolate 10, M. abscessus complex, erm gene type Type 1 abscessus) was 16 µg/mL (≈ 47.4 µM), the MIC (M. abscessus complex; isolate 11, M. abscessus complex, erm gene type Type 6 abscessus) was 8 µg/mL (≈ 23.7 µM) and the MIC (M. abscessus complex; isolate 12, M. abscessus complex, erm gene type Type 6 abscessus) was 8 µg/mL (≈ 23.7 µM). For the same molecule, the MIC (M. abscessus complex; isolate 13, M. abscessus complex, erm gene type Type 6 abscessus) was 16 µg/mL (≈ 47.4 µM), the MIC (M. abscessus complex; isolate 14, M. abscessus complex, erm gene type Type 6 abscessus) was ≤ 2 µg/mL and the MIC (M. abscessus complex; isolate 15, M. abscessus complex, erm gene type Type 7 abscessus) was 16 µg/mL (≈ 47.4 µM). For the same molecule, the MIC (M. abscessus complex; isolate 16, M. abscessus complex, erm gene type Type 7 abscessus) was ≤ 2 µg/mL, the MIC (M. abscessus complex; isolate 17, M. abscessus complex, erm gene type Type 8 abscessus) was 16 µg/mL (≈ 47.4 µM) and the MIC (M. chelonae; isolate 18, M. chelonae) was 16 µg/mL (≈ 47.4 µM). For the same molecule, the MIC (M. chelonae; isolate 19, M. chelonae) was 8 µg/mL (≈ 23.7 µM), the MIC (M. chelonae; isolate 20, M. chelonae) was 4 µg/mL (≈ 11.9 µM) and the MIC (M. chelonae; isolate 21, M. chelonae) was 16 µg/mL (≈ 47.4 µM). For the same molecule, the MIC (M. chelonae; isolate 22, M. chelonae) was 16 µg/mL (≈ 47.4 µM), the MIC (M. fortuitum group; isolate 23, M. fortuitum group, M. fortuitum) was ≤ 2 µg/mL and the MIC (M. fortuitum group; isolate 24, M. fortuitum group, M. fortuitum) was 4 µg/mL (≈ 11.9 µM). The MIC (M. fortuitum group; isolate 25, M. fortuitum group, M. fortuitum) was 4 µg/mL (≈ 11.9 µM), the MIC (M. fortuitum group; isolate 26, M. fortuitum group, M. porcinum) was ≤ 2 µg/mL and the MIC (M. fortuitum group; isolate 27, M. fortuitum group, M. porcinum) was 4 µg/mL (≈ 11.9 µM). For the same molecule, the MIC (M. fortuitum group; isolate 28, M. fortuitum group, M. porcinum/M. boenickei) was ≤ 2 µg/mL, the MIC (M. fortuitum group; isolate 29, M. fortuitum group, M. porcinum/M. boenickei) was 4 µg/mL (≈ 11.9 µM) and the MIC (M. fortuitum group; isolate 30, M. fortuitum group, M. porcinum/M. boenickei) was ≤ 2 µg/mL. The MIC (M. fortuitum group; isolate 31, M. fortuitum group, M. senegalense) was ≤ 2 µg/mL, the MIC (M. fortuitum group; isolate 32, M. fortuitum group, M. senegalense) was ≤ 2 µg/mL and the MIC (M. fortuitum group; isolate 33, M. fortuitum group, M. senegalense) was ≤ 2 µg/mL. The MIC (M. fortuitum group; isolate 34, M. fortuitum group, M. senegalense) was ≤ 2 µg/mL, the MIC (M. immunogenum group; isolate 35, M. immunogenum group) was 32 µg/mL (≈ 94.9 µM) and the MIC (M. immunogenum group; isolate 36, M. immunogenum group) was 8 µg/mL (≈ 23.7 µM). For the same molecule, the MIC (M. immunogenum group; isolate 37, M. immunogenum group) was 32 µg/mL (≈ 94.9 µM), the MIC (M. immunogenum group; isolate 38, M. immunogenum group) was 32 µg/mL (≈ 94.9 µM) and the MIC (M. mucogenium group; isolate 39, M. mucogenicum group, M. mucogenicum) was ≤ 2 µg/mL. For the same molecule, the MIC (M. mucogenium group; isolate 40, M. mucogenicum group, M. mucogenicum) was ≤ 2 µg/mL, the MIC (M. mucogenium group; isolate 41, M. mucogenicum group, M. mucogenicum) was ≤ 2 µg/mL and the MIC (M. mucogenium group; isolate 42, M. mucogenicum group, M. mucogenicum) was ≤ 2 µg/mL. For the same molecule, the MIC (M. mucogenium group; isolate 43, M. mucogenicum group, M. phocaicum) was ≤ 2 µg/mL, the MIC (M. mucogenium group; isolate 44, M. mucogenicum group, M. phocaicum) was ≤ 2 µg/mL and the MIC (M. mucogenium group; isolate 45, M. mucogenicum group, M. phocaicum) was ≤ 2 µg/mL. For the same molecule, the MIC (M. mucogenium group; isolate 46, M. mucogenicum group, M. phocaicum) was ≤ 2 µg/mL, the MIC (M. mucogenium group; isolate 47, M. mucogenicum group, M. phocaicum) was 4 µg/mL (≈ 11.9 µM) and the MIC (M. mucogenium group; isolate 48, M. mucogenicum group, M. phocaicum) was ≤ 2 µg/mL. For the same molecule, the MIC (M. smegmatis group; isolate 49, M. smegmatis group, M. goodii) was ≤ 2 µg/mL, the MIC (M. smegmatis group; isolate 50, M. smegmatis group, M. wolinskyi) was 4 µg/mL (≈ 11.9 µM) and the MIC50 ([3]; read-out: MIC50) was 32 µg/mL (≈ 94.9 µM). The MIC90 ([3]; read-out: MIC90) was > 32 µg/mL, the MIC (M. avium; isolate 1, MAC) was 32 µg/mL (≈ 94.9 µM) and the MIC (M. avium; isolate 2, MAC) was 32 µg/mL (≈ 94.9 µM). For the same molecule, the MIC (M. avium; isolate 3, MAC) was > 32 µg/mL, the MIC (M. chimaera; isolate 4, MAC) was 16 µg/mL (≈ 47.4 µM) and the MIC (M. chimaera; isolate 5, MAC) was 32 µg/mL (≈ 94.9 µM). The MIC (M. intracellulare; isolate 6, MAC) was 32 µg/mL (≈ 94.9 µM), the MIC (M. intracellulare; isolate 7, MAC) was 16 µg/mL (≈ 47.4 µM) and the MIC (M. intracellulare; isolate 8, MAC) was 32 µg/mL (≈ 94.9 µM). The MIC (M. intracellulare; isolate 9, MAC) was 32 µg/mL (≈ 94.9 µM), the MIC (M. intracellulare; isolate 10, MAC) was > 32 µg/mL and the MIC (M. arupense) was 32 µg/mL (≈ 94.9 µM). The MIC (M. simiae; isolate 13, Other) was > 32 µg/mL, the MIC (M. simiae; isolate 14, Other) was 32 µg/mL (≈ 94.9 µM) and the MIC (M. simiae; isolate 15, Other) was > 32 µg/mL.
